Reference: patent US20250230193A1, “CYCLIC COMPOUND HAVING SELECTIVE KRAS INHIBITORY EFFECT ON HRAS AND NRAS” (CHUGAI SEIYAKU KABUSHIKI KAISHA, priority 2022, published 2025)

Assays:
[1] = target: GDP-bound NRAS wild-type protein (Homo sapiens, UniProt P01111); assay: Binding to NRAS by surface plasmon resonance (SPR), Single Cycle Kinetics; conditions: SPR, GDP-bound NRAS wild-type vs GDP-bound KRAS wild-type
[2] = target: GDP-bound HRAS wild-type protein (Homo sapiens, UniProt P01112); assay: Binding to HRAS by surface plasmon resonance (SPR), Single Cycle Kinetics; conditions: SPR, GDP-bound HRAS wild-type vs GDP-bound KRAS wild-type
Sequence of GDP-bound HRAS wild-type protein (P01112 whole entry): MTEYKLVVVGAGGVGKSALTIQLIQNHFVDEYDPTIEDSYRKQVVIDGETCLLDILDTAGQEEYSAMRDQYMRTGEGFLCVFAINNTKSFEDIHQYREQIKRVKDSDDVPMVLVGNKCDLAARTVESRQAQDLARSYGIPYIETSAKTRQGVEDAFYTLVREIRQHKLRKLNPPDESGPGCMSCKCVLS

Sequence of GDP-bound NRAS wild-type protein (P01111 whole entry): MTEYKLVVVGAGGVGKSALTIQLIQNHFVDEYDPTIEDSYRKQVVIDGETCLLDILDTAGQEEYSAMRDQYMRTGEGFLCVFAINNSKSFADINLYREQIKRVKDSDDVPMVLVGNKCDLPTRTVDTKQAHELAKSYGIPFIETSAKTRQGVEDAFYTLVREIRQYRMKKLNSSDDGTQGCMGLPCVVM

Structure (SMILES)	NRAS/KRAS (ratio of KD value with respect to NRAS to KD value with respect to KRAS) [1]	HRAS/KRAS (ratio of KD value with respect to HRAS to KD value with respect to KRAS) [2]
CCC(CC)[C@H]1C(=O)N(C)[C@H](C(=O)N(C)C)CC(=O)N(C)[C@@H](COC)C(=O)N[C@@H]([C@@H](C)CC)C(=O)N(C)CC(=O)N(C)[C@H]2C/C=C\CCN(C2=O)[C@@H](CC2CCCCC2)C(=O)N(C)CC(=O)N[C@@H](CCc2ccc(C(F)(F)F)c(OC)c2)C(=O)N2C[C@@H](C)C[C@H]2C(=O)NC2(CC(C)(C)C2)C(=O)N1C [PP2466]	A (a compound having 10 or more and less than 20 is denoted as A)	A (a compound having 10 or more and less than 20 is denoted as A)
CCCOC[C@H]1C(=O)N[C@@H]([C@@H](C)CC)C(=O)N(C)CC(=O)N(C)[C@H]2C/C=C\CCN(C2=O)[C@@H](Cc2ccc(C)cc2)C(=O)N(C)CC(=O)N[C@@H](CCc2ccc(C(F)(F)F)c(Cl)c2)C(=O)N2C[C@@H](C)C[C@H]2C(=O)NC2(CC(C)(C)C2)C(=O)N(C)[C@@H](C2CCCC2)C(=O)N(C)[C@H](C(=O)N(C)CC)CC(=O)N1C [PP2467]	A (a compound having 10 or more and less than 20 is denoted as A)	B (a compound having 3 or more and less than 10 is denoted as B)
CCO[C@@H]1C[C@H]2C(=O)NC3(CC(C)(C)C3)C(=O)N(C)[C@@H](C(CC)CC)C(=O)N(C)[C@H](C(=O)N(C)C)CC(=O)N(C)[C@@H](COC)C(=O)N[C@@H]([C@@H](C)CC)C(=O)N(C)CC(=O)N(C)[C@H]3C/C=C\CCN(C3=O)[C@@H](CC3CCCCC3)C(=O)N(C)CC(=O)N[C@@H](CCc3ccc(C(F)(F)F)c(Cl)c3)C(=O)N2C1 [PP2468]	AA (a compound having 20 or more is denoted as AA)	A (a compound having 10 or more and less than 20 is denoted as A)
CCCOC[C@H]1C(=O)N[C@@H]([C@@H](C)CC)C(=O)N(C)CC(=O)N(C)[C@H]2C/C=C\CCN(C2=O)[C@@H](Cc2ccc(C)cc2)C(=O)N(C)CC(=O)N[C@@H](CCc2ccc(C(F)(F)F)c(Cl)c2)C(=O)N2C[C@H](OCC)C[C@H]2C(=O)NC2(CC(C)(C)C2)C(=O)N(C)[C@@H](C2CCCC2)C(=O)N(C)[C@H](C(=O)N(C)CC)CC(=O)N1C [PP2469]	A (a compound having 10 or more and less than 20 is denoted as A)	B (a compound having 3 or more and less than 10 is denoted as B)
CCOC[C@H]1C(=O)N[C@@H]([C@@H](C)CC)C(=O)N(C)CC(=O)N(C)[C@H]2C/C=C\CCN(C2=O)[C@@H](CC2CCCCC2)C(=O)N(C)CC(=O)N[C@@H](CCc2ccc(C(F)(F)F)c(OC)c2)C(=O)N2C[C@H](OCC)C[C@H]2C(=O)NC2(CC(C)(C)C2)C(=O)N(C)[C@@H](C(CC)CC)C(=O)N(C)[C@H](C(=O)N(C)C)CC(=O)N1C [PP2470]	A (a compound having 10 or more and less than 20 is denoted as A)	A (a compound having 10 or more and less than 20 is denoted as A)
CCCOC[C@H]1C(=O)N[C@@H]([C@@H](C)CC)C(=O)N(C)CC(=O)N(C)[C@H]2C/C=C\CCN(C2=O)[C@@H](Cc2ccc(C)cc2)C(=O)N(C)CC(=O)N[C@@H](CCc2cc(F)c(C(F)(F)F)c(F)c2)C(=O)N2C[C@@H](C)C[C@H]2C(=O)NC2(CC(C)(C)C2)C(=O)N(C)[C@@H](C2CCCC2)C(=O)N(C)[C@H](C(=O)N(C)CC)CC(=O)N1C [PP2471]	A (a compound having 10 or more and less than 20 is denoted as A)	A (a compound having 10 or more and less than 20 is denoted as A)
CCCOC[C@H]1C(=O)N[C@@H]([C@@H](C)CC)C(=O)N(C)CC(=O)N(C)[C@H]2C/C=C\CCN(C2=O)[C@@H](CC2CCC(F)(F)CC2)C(=O)N(C)CC(=O)N[C@@H](CCc2cc(F)c(C(F)(F)F)c(F)c2)C(=O)N2C[C@H](OCC)C[C@H]2C(=O)NC2(CC(C)(C)C2)C(=O)N(C)[C@@H](C(CC)CC)C(=O)N(C)[C@H](C(=O)N(C)C)CC(=O)N1C [PP2472]	A (a compound having 10 or more and less than 20 is denoted as A)	A (a compound having 10 or more and less than 20 is denoted as A)
CCOC[C@H]1C(=O)N[C@@H]([C@@H](C)CC)C(=O)N(C)CC(=O)N(C)[C@H]2C/C=C\CCN(C2=O)[C@@H](CC2CCC(F)(F)CC2)C(=O)N(C)CC(=O)N[C@@H](CCc2ccc(C(F)(F)F)c(Cl)c2)C(=O)N2C[C@@H](C)C[C@H]2C(=O)NC2(CC(C)(C)C2)C(=O)N(C)[C@@H](C(CC)CC)C(=O)N(C)[C@H](C(=O)N(C)C)CC(=O)N1C [PP2475]	AA (a compound having 20 or more is denoted as AA)	A (a compound having 10 or more and less than 20 is denoted as A)
CCO[C@@H]1C[C@H]2C(=O)NC3(CC(C)(C)C3)C(=O)N(C)[C@@H](C(CC)CC)C(=O)N(C)[C@H](C(=O)N(C)C)CC(=O)N(C)[C@@H](C(C)C)C(=O)N[C@@H]([C@@H](C)CC)C(=O)N(C)CC(=O)N(C)[C@H]3C/C=C\CCN(C3=O)[C@@H](CC3CCC(F)(F)CC3)C(=O)N(C)CC(=O)N[C@@H](CCc3ccc(C(F)(F)F)c(OC)c3)C(=O)N2C1 [PP2477]	A (a compound having 10 or more and less than 20 is denoted as A)	A (a compound having 10 or more and less than 20 is denoted as A)
CCOC[C@H]1C(=O)N[C@@H]([C@@H](C)CC)C(=O)N(C)CC(=O)N(C)[C@H]2C/C=C\CCN(C2=O)[C@@H](CC2CCCCC2)C(=O)N(C)CC(=O)N[C@@H](CCc2cc(F)c(C(F)(F)F)c(F)c2)C(=O)N2C[C@H](OCC)C[C@H]2C(=O)NC2(CC(C)(C)C2)C(=O)N(C)[C@@H](C(CC)CC)C(=O)N(C)[C@H](C(=O)N(C)C)CC(=O)N1C [PP2479]	AA (a compound having 20 or more is denoted as AA)	A (a compound having 10 or more and less than 20 is denoted as A)
CCO[C@@H]1C[C@H]2C(=O)NC3(CC(C)(C)C3)C(=O)N(C)[C@@H](C(CC)CC)C(=O)N(C)[C@H](C(=O)N(C)C)CC(=O)N(C)[C@@H](CC3CC3)C(=O)N[C@@H]([C@@H](C)CC)C(=O)N(C)CC(=O)N(C)[C@H]3C/C=C\CCN(C3=O)[C@@H](CC3CCC(F)(F)CC3)C(=O)N(C)CC(=O)N[C@@H](CCc3ccc(C(F)(F)F)c(OC)c3)C(=O)N2C1 [PP2480]	A (a compound having 10 or more and less than 20 is denoted as A)	A (a compound having 10 or more and less than 20 is denoted as A)
CCO[C@@H]1C[C@H]2C(=O)NC3(CC(C)(C)C3)C(=O)N(C)[C@@H](C(CC)CC)C(=O)N(C)[C@H](C(=O)N(C)C)CC(=O)N(C)[C@@H](C(C)C)C(=O)N[C@@H]([C@@H](C)CC)C(=O)N(C)CC(=O)N(C)[C@H]3C/C=C\CCN(C3=O)[C@@H](CC3CCC(F)(F)CC3)C(=O)N(C)CC(=O)N[C@@H](CCc3cc(F)c(C(F)(F)F)c(F)c3)C(=O)N2C1 [PP2481]	A (a compound having 10 or more and less than 20 is denoted as A)	A (a compound having 10 or more and less than 20 is denoted as A)
CCC[C@H]1C(=O)N[C@@H]([C@@H](C)CC)C(=O)N(C)CC(=O)N(C)[C@H]2C/C=C\CCN(C2=O)[C@@H](CC2CCC(F)(F)CC2)C(=O)N(C)CC(=O)N[C@@H](CCc2ccc(C(F)(F)F)c(OC)c2)C(=O)N2C[C@H](OCC)C[C@H]2C(=O)NC2(CC(C)(C)C2)C(=O)N(C)[C@@H](C(CC)CC)C(=O)N(C)[C@H](C(=O)N(C)C)CC(=O)N1C [PP2482]	A (a compound having 10 or more and less than 20 is denoted as A)	A (a compound having 10 or more and less than 20 is denoted as A)
CCCOC[C@H]1C(=O)N[C@@H]([C@@H](C)CC)C(=O)N(C)CC(=O)N(C)[C@H]2C/C=C\CCN(C2=O)[C@@H](CC2CCC(F)(F)CC2)C(=O)N(C)CC(=O)N[C@@H](CCc2ccc(C(F)(F)F)c(OC)c2)C(=O)N2C[C@@H](C)C[C@H]2C(=O)NC2(CC(C)(C)C2)C(=O)N(C)[C@@H](C(CC)CC)C(=O)N(C)[C@H](C(=O)N(C)C)CC(=O)N1C [PP2483]	A (a compound having 10 or more and less than 20 is denoted as A)	A (a compound having 10 or more and less than 20 is denoted as A)
CCCOC[C@H]1C(=O)N[C@@H]([C@@H](C)CC)C(=O)N(C)CC(=O)N(C)[C@H]2C/C=C\CCN(C2=O)[C@@H](CC2CCC(F)(F)CC2)C(=O)N(C)CC(=O)N[C@@H](CCc2ccc(C(F)(F)F)c(Cl)c2)C(=O)N2C[C@H](OCC)C[C@H]2C(=O)NC2(CC(C)(C)C2)C(=O)N(C)[C@@H](C(CC)CC)C(=O)N(C)[C@H](C(=O)N(C)C)CC(=O)N1C [PP2484]	A (a compound having 10 or more and less than 20 is denoted as A)	A (a compound having 10 or more and less than 20 is denoted as A)
